# Source: publication PMC12070314, “Efficient Small-Molecule Reversal Agents for Anticoagulant Fondaparinux” (ACS Pharmacology & Translational Science, 2025)
# Like-named read-outs stand apart in the source and are kept apart here.
# What was measured:
# [1] = tested on: freshly extracted mouse blood; assay: Naked-eye ex vivo blood coagulation assay; format: cell-based; details: 100 μM fond + 200 μM antidote, 5 min
# Procedure: Considering the results obtained in the in vitro assays, we aimed to test our molecules in a more relevant and challenging environment. To this aim, we performed naked-eye ex vivo coagulation assays (Figure ). Freshly extracted mouse blood samples were treated with fond (100 μM final concentration) in the absence and in the presence of different antidotes (two molar equivalents). Blood coagulation was visually inspected by the simple inversion of the vials. For a fair comparison between different series, all of the experiments were done in parallel with the corresponding control samples of untreated mouse blood (labeled “0” in Figure ). […] The effect of antidotes alone on blood coagulation was also tested (Figure B), showing that neither of the three small molecules appreciably changed the coagulation properties.
# This naked-eye coagulation test is an adaptation of the whole blood clotting time assay. , Freshly collected mouse blood was directly used without further treatment. 300 μL aliquots were dispensed in Eppendorf tubes, to which fondaparinux (100 μM), and/or potential antidotes (3AC, 3FF, ciraparantag, or protamine, 200 μM) were added, and a picture was taken after 5 min. Clot formation was verified by inverting the Eppendorf vials.
# [2] = earlier work of the authors; reference number not given; read-out: Apparent affinity for heparin, K D^app; cited from earlier work
# [3] = tested on: FXa/ATIII inhibited by fondaparinux; assay: In vitro FXa/ATIII enzymatic assay of anti-fondaparinux activity; format: biochemical, human; details: for Restoration of FXa protease activity (hydrolysis rate of the peptide substrate): 15 μM fond + 9 or 15 μM antidote, HPLC
# Procedure: The activity of two spermine derivatives, 3AC and 3FF, as fond antidotes was evaluated with an in vitro enzymatic assay related to blood coagulation, as previously described (Figure A). , In brief, fond promotes a conformational change in ATIII toward an efficient inhibitor of FXa. Addition of a ligand of fond hinders the inhibitory action of ATIII restoring the FXa hydrolytic activity, which has been used as an indirect measurement of antifond behavior.
# Recombinant antithrombin III and coagulation factor Xa were obtained from two different kits, Berichrom Heparin test (SIEMENS) and Kinetichrome Anti-Xa Heparin kit (Iduron). Methods for both kits are similar, but not identical. Differences will be spotted by method A (SIEMENS) and method B (Iduron). Following the manufacturer’s instructions, stock solutions were prepared as follows: human antithrombin III (1 IU/mL) and factor Xa reagent (0.4 μg/mL, human plasma fraction with additives Tris, sodium chloride, and EDTA). Chromogenic substrate specific for factor Xa was dissolved at 4 mM concentration (A: Z-D-Leu-Gly-Arg-ANBA-methyl amide, and B: Z-D-Arg-Gly-Arg-pNA). Additionally, either 4-nitroaniline (A) or N-Boc-4-nitroaniline (B) was added to the substrate solution at a concentration of 1.6 mM and used as an internal standard to quantify the hydrolysis of the chromogenic substrate. All compounds were dissolved in Milli-Q water at the desired stock concentrations prior to start of the assays and kept at 4 °C. Various concentrations of the ligand, fondaparinux (up to 15 μM) or LMWH (0.1 to 10 μM), human antithrombin III solution (2 μL), and factor Xa reagent solution (35 μL) were consecutively added to an Eppendorf vial and brought to a total volume of 145 μL. Then, 20 μL of reagent substrate solution was added to start the experiment, and the mixture was vigorously shaken at 25 °C. 20 μL aliquots were taken at 5/10/15/20/30/50/80/120 minutes, diluted with 40 μL of acetic acid (20% v/v), and injected into the analytical HPLC system. The gradient ranged from 5% of ACN (0.1% formic acid) in water (0.1% formic acid) to 100% of ACN in 24 min using a 15 × 4.6 mm KROMAPHASE C18 5.0 μm column. In A: the retention time of cleaved chromophore was 9.1 min, retention time of chromogenic substrate was 13.9 min, and retention time of 4-nitroaniline was 15.4 min. In B: the retention time of chromogenic substrate was 11.0 min, retention time of cleaved chromophore was 15.2 min, and retention time of N-Boc-4-nitroaniline was 21.7 min. FXa/ATIII activity was represented as the percent of hydrolysis, which was calculated from the normalized area of the cleaved peptide at 405 nm at each corresponding time point. The experiment carried out in the absence of heparinoid was considered as the maximum of activity, while the experiment with heparinoid and no ligand was considered as negative control (maximum inhibition of FXa by heparinoid). The concentration of heparinoid was selected for the measurement to render significant inhibition within experimental time while allowing the reaction to proceed.
# [4] = Fluorescence titration with fondaparinux; format: binding; details: for Kd: read-out: Apparent overall affinity for fond, K D^app ≈ BC50°
# Text: The fluorescence emission spectrum of 3AC upon excitation at 280 nm is a suitable indicator of the interaction with heparin-like GAGs. Thus, the titration of 3AC with fond in Bis-Tris buffer at pH 7.5 produced a perturbation of the corresponding intensity of the fluorene emission band (Figure A), presenting two clearly differentiated phases. At a low fond/3AC ratio, the fluorescence emission intensity decreases most likely due to the proximity of chromophores when several molecules of 3AC are closely bound to one molecule of fond. After reaching a fond/3AC molar ratio of ∼0.6, the emission band starts to recover as 3AC molecules are redistributed to equimolecular complexes with fond. Considering the disaccharide repeating unit of heparin as the main binding epitope of our ligands and the electrostatic charge complementarity, we can hypothesize the formation of fond/3AC supramolecular complexes with both 1:1 and 1:2 stoichiometries as the simplest binding model satisfying the two-phase behavior (Figure B). The emission band variation was successfully fitted to the 1:2 fond/3AC equilibria, rendering the formation constants (log β values) for the corresponding complexes (inset in Figure A).
# Fluorescence emission and excitation spectra were collected on a Photon Technology International Instrument, Fluorescence Master Systems, using Felix32 software and cuvettes with 10 mm path length. Stock solutions of 3AC (10 μM) and fondaparinux (0.23 mM, also containing 10 μM 3AC) were prepared in 1 mM Bis-Tris buffer at pH 7.5. Then, 2 mL of binder solution was placed on a quartz cell, and the emission fluorescence spectrum was measured upon excitation at 280 nm. Then, small volumes of fond stock solution were added to the cell, and the fluorescence spectra were acquired after each addition. The titration experiments were fitted using HyperSpec 2008 software, , which allows a nonlinear global fitting of the full emission spectra to a binding mode as defined by the user.
# [5] = tested on: FXa/ATIII inhibited by LMWH; assay: In vitro FXa/ATIII enzymatic assay with LMWH; format: biochemical, human; details: [LMWH] = [antidote] = 0.1 or 10 μM, Figure S3
# Procedure: Recombinant antithrombin III and coagulation factor Xa were obtained from two different kits, Berichrom Heparin test (SIEMENS) and Kinetichrome Anti-Xa Heparin kit (Iduron). Methods for both kits are similar, but not identical. Differences will be spotted by method A (SIEMENS) and method B (Iduron). Following the manufacturer’s instructions, stock solutions were prepared as follows: human antithrombin III (1 IU/mL) and factor Xa reagent (0.4 μg/mL, human plasma fraction with additives Tris, sodium chloride, and EDTA). Chromogenic substrate specific for factor Xa was dissolved at 4 mM concentration (A: Z-D-Leu-Gly-Arg-ANBA-methyl amide, and B: Z-D-Arg-Gly-Arg-pNA). Additionally, either 4-nitroaniline (A) or N-Boc-4-nitroaniline (B) was added to the substrate solution at a concentration of 1.6 mM and used as an internal standard to quantify the hydrolysis of the chromogenic substrate. All compounds were dissolved in Milli-Q water at the desired stock concentrations prior to start of the assays and kept at 4 °C. […] FXa/ATIII activity was represented as the percent of hydrolysis, which was calculated from the normalized area of the cleaved peptide at 405 nm at each corresponding time point. […]
# [6] = [fond] = [antidote] = 15 μM, three reaction times
Structure (SMILES),Reversal of fond anticoagulant effect (clot formation by vial inversion) [1],Kd [2] [µM],Restoration of FXa protease activity (hydrolysis rate of the peptide substrate) [3],"Percent recovery of peptide substrate hydrolysis ([3]; [fond] = 15 μM, lower antidote concentration (9 μM), Figure S2)","Percent recovery of peptide substrate hydrolysis [3, 6]",Kd ([4]; 1 mM Bis-Tris buffer pH 7.5) [µM],"Stepwise binding constant K (1:1) ([4]; fond/3AC 1:1 complex, 1 mM Bis-Tris buffer pH 7.5)","Stepwise binding constant K (1:2) ([4]; fond/3AC 1:2 complex, 1 mM Bis-Tris buffer pH 7.5)","logβ(3AC-Fond) ([4]; formation constant from model fitting, 1:1 complex)","logβ(3AC2-Fond) ([4]; formation constant from model fitting, 1:2 fond/3AC complex)",Percent recovery of peptide substrate hydrolysis vs LMWH [5]
Oc1ccccc1CNCCCNCCCCNCCCNCc1ccc2c(c1)Cc1ccccc1-2 [Compound 3AC],efficiently revert the drug effect,~0.5,restore the FXa protease activity in a dose–response manner,higher potency,almost complete fast recovery up to the control values,4.5 ± 0.09,2.05 ± 0.05 × 10^5 M^–1,1.95 ± 0.19 × 10^4 M^–1,5.31(1),9.60(3),more active than prot and similar to cir
Oc1ccc2ccccc2c1CNCCCNCCCCNCCCNCc1c(O)ccc2ccccc12 [Compound 3FF],efficiently revert the drug effect,,restore the FXa protease activity in a dose–response manner,,almost complete fast recovery up to the control values,9.8 ± 0.3,,,,,more active than prot and similar to cir
